Experimental data taken from patent US20230301968A1 (ZEPHAPHARM LTD, priority 2020, published 2023).

Key:
[1] = target: T1, CYP1A2 (Homo sapiens, UniProt P05177); experiment: Cytochrome P450 reaction phenotyping, recombinant CYP1A2; type: in vitro ADME
T1 construct: purchased
T1 sequence (P05177 1-516): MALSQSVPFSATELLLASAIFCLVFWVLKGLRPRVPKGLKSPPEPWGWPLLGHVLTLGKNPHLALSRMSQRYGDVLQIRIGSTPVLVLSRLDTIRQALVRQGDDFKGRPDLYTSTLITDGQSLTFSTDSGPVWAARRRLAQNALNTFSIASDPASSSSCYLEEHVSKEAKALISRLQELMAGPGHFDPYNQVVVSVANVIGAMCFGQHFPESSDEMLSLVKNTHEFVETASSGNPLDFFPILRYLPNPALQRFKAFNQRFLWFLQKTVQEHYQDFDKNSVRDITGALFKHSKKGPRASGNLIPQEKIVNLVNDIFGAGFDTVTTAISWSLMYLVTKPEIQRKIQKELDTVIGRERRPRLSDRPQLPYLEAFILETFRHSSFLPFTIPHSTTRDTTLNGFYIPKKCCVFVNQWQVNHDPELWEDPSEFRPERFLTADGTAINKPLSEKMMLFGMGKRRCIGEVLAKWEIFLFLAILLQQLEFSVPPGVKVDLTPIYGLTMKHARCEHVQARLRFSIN
Experimental: (§1) The amount of test compound remaining at each time point was analysed by LC-MS/MS. Incubations in control recombinant enzymes were also performed to assess non-enzymatic mediated stability.
(§2) Incubations were also performed using control Bactosomes™ (no cytochrome P450 enzymes present) to reveal any non-enzymatic degradation. Control compounds known to be metabolised specifically by each P450 isoform were included. All incubations were performed singularly for each test compound. […] The reactions were stopped by transferring an aliquot of incubate to quench solvent at the appropriate time points, in a 1:3 ratio. The termination plates were centrifuged at 3,000 rpm for 20 min at 4° C. to precipitate the protein. Following protein precipitation, the sample supernatants were analysed using LC-MS/MS, along with internal standard (1:1 supernatant to internal standard).
(§3) Following correction for any loss in the incubations with the control Bactosomes™, from a plot of In peak area ratio (compound peak area/internal standard peak area) against time, the gradient of the line was determined. Subsequently, half-life (t½) was calculated using the equations below: […]

[2] = target: T2, CYP2D6 (Homo sapiens, UniProt P10635); experiment: Cytochrome P450 reaction phenotyping, recombinant CYP2D6; type: in vitro ADME
T2 construct: purchased
T2 sequence (P10635 whole entry): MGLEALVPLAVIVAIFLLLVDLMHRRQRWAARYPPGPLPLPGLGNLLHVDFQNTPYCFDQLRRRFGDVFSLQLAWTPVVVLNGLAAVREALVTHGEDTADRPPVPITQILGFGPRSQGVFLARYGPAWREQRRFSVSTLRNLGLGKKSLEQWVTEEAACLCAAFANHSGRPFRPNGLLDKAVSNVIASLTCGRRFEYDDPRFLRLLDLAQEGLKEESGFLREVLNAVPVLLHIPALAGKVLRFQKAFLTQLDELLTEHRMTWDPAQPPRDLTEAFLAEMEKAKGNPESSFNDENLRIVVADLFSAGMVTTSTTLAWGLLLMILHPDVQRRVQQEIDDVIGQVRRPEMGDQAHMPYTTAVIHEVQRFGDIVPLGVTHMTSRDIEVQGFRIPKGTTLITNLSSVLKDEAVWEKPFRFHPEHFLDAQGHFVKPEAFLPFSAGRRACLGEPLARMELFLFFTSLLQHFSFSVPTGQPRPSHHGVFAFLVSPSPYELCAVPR
Experimental: as §1, §2, §3

[3] = target: T3, CYP3A4 (Homo sapiens, UniProt P08684); experiment: Cytochrome P450 reaction phenotyping, recombinant CYP3A4; type: in vitro ADME
T3 construct: purchased
T3 sequence (P08684 whole entry): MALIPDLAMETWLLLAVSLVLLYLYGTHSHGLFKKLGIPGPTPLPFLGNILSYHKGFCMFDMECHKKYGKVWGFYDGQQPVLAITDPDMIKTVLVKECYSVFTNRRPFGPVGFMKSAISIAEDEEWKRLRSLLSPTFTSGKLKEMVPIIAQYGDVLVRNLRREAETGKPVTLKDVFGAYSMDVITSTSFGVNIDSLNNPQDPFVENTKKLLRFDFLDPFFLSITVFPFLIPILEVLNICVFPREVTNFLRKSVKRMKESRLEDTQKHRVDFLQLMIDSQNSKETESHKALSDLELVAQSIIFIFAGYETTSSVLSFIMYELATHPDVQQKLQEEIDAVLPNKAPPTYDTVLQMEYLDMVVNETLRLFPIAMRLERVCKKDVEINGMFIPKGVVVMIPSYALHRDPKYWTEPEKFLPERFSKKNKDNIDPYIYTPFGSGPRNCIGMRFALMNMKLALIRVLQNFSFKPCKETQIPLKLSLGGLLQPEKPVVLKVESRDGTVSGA
Experimental: as §1, §2, §3

[4] = Metabolic stability in human liver microsomes with or without CYP1A2 inhibitor furafylline; settings: human, microsomes
Experimental: (§4) The amount of test compound remaining at each time point was analysed by LC-MS/MS. An incubation in the absence of NADPH was also performed to assess non-CYP mediated stability.
(§5) In the pre-screen assay, […] 0.1 M phosphate buffer pH 7.4 (final substrate concentration 1 µM) were pre-incubated at 37° C. prior to the addition of NADPH (final concentration 1 mM) to initiate the reaction. A minus cofactor control incubation was included for each compound tested where 0.1 M phosphate buffer pH 7.4 was added instead of NADPH (minus NADPH). […] A minus cofactor control incubation was included for each compound tested where 0.1 M phosphate buffer pH 7.4 was added instead of cofactor (minus NADPH). […] The reactions were stopped by transferring an aliquot of incubate to acetonitrile at the appropriate time points, in a 1:3 ratio. The termination plates were centrifuged at 3,000 rpm for 20 min at 4° C. to precipitate the protein. Following protein precipitation, the sample supernatants were analysed using LC-MS/MS, along with internal standard (1:1 supernatant to internal standard).
(§6) From a plot of In peak area ratio (compound peak area/internal standard peak area) against time, the gradient of the line was determined. Subsequently, half-life and intrinsic clearance were calculated using the equations below: […]

[5] = system: CYP1A2; experiment: as above; settings: human, microsomes; for microsomal CLint at 1 µM: pH 7.4, CLint
Experimental: as §4, §5, §6

[6] = system: human liver microsomes; experiment: as above; settings: 10 µM furafylline versus no inhibitor
Experimental: as §4, §5, §6

[7] = Stability in human cryopreserved hepatocytes with or without CYP1A2 inhibitors (assays 1 to 3); settings: human, hepatocytes; for half-life at 1 µM: t½
Experimental: (§7) In each assay, the amount of test compound remaining at each time point was analysed by LC-MS/MS.
(§8) The final incubation volume was 500 µL. […] A positive control compound, ethoxycoumarin, for CYP1A2 (as CYP1A2 substrate) was included. […] The reactions were stopped by transferring 50 µL of incubate to 100 µL acetonitrile containing internal standard at the appropriate time points (0, 5, 10, 20, 40 and 60 min). The termination plates were centrifuged at 2500 rpm at 4° C. for 30 min to precipitate the protein.
(§9) From a plot of In peak area ratio (compound peak area/internal standard peak area) against time, the gradient of the line was determined. Subsequently, half-life (t½) and intrinsic clearance (CLint) were calculated using the equations below: […]

[8] = system: CYP1A2; experiment: as above; settings: human, hepatocytes; for half-life at 1 µM: t½
Experimental: as §7, §8, §9

Question: Which “Compound Remaining (% of 0 min)” value ([1]; CYP1A2, 0 min) does the source give for COC(=O)Nc1nc2cc(C(=O)c3ccc(F)cc3)ccc2[nH]1 [Flubendazole, methyl N-[6-(4-fluorobenzoyl)-1H-benzimidazol-2-yl]carbamate] here?
Answer: The value was 100%.

Question: And the “Compound Remaining (% of 0 min)” value ([1]; CYP1A2, 5 min)?
Answer: The value was 38.6%.

Question: And the “Compound Remaining (% of 0 min)” value ([1]; CYP1A2, 15 min)?
Answer: The value was 1.30%.

Question: What about the “Compound Remaining (% of 0 min)” value ([1]; CYP1A2, 30 min) of the same compound?
Answer: The value was 0.0440%.

Question: And the “Compound Remaining (% of 0 min)” value ([1]; CYP1A2, 45 min)?
Answer: Its value is 0.002%.

Question: And the half-life at 1 µM ([1]; human, pH 7.4, 1 µM substrate, recombinant CYP1A2, NADPH, 30 and 45 minute time points excluded, read-out: t½)?
Answer: The half-life at 1 µM was 2.34 min.

Question: And the t½ ([2]; 1 µM substrate, recombinant CYP2D6, NADPH)?
Answer: The t½ was 2.45 h.

Question: And the “Compound Remaining (% of 0 min)” value ([2]; CYP2D6, 0 min)?
Answer: Its value is 100%.

Question: What about the “Compound Remaining (% of 0 min)” value ([2]; CYP2D6, 5 min) of the same compound?
Answer: The value was 93.1%.

Question: What about the “Compound Remaining (% of 0 min)” value ([2]; CYP2D6, 15 min) of the same compound?
Answer: The value was 90.0%.

Question: What about the “Compound Remaining (% of 0 min)” value ([2]; CYP2D6, 30 min) of the same compound?
Answer: Its value is 85.6%.

Question: And the “Compound Remaining (% of 0 min)” value ([2]; CYP2D6, 45 min)?
Answer: The value was 78.9%.

Question: And the half-life at 1 µM ([2]; human, pH 7.4, 1 µM substrate, recombinant CYP2D6, NADPH, read-out: t½)?
Answer: The half-life at 1 µM was ≥ 2.45 h.

Question: What about the “Compound Remaining (% of 0 min)” value ([3]; CYP3A4, 0 min) of the same compound?
Answer: Its value is 100%.

Question: And the “Compound Remaining (% of 0 min)” value ([3]; CYP3A4, 5 min)?
Answer: The value was 94.6%.

Question: What about the “Compound Remaining (% of 0 min)” value ([3]; CYP3A4, 15 min) of the same compound?
Answer: The value was 98.2%.

Question: What about the “Compound Remaining (% of 0 min)” value ([3]; CYP3A4, 30 min) of the same compound?
Answer: The value was 100%.

Question: And the “Compound Remaining (% of 0 min)” value ([3]; CYP3A4, 45 min)?
Answer: The value was 97.5%.

Question: What about the half-life at 1 µM ([3]; human, pH 7.4, 1 µM substrate, recombinant CYP3A4, NADPH, minus value = not metabolised, read-out: t½) of the same compound?
Answer: Its half-life at 1 µM is ≥ 2.45 h.

Question: And the microsomal CLint at 1 µM ([4]; pH 7.4, CLint, 1 µM substrate, no inhibitor)?
Answer: Its microsomal CLint at 1 µM is 50.3 µL/min/mg.

Question: What about the microsomal CLint at 1 µM ([4]; pH 7.4, intrinsic clearance (CLint), pre-screen assay, absence of inhibitor) of the same compound?
Answer: Its microsomal CLint at 1 µM is 43.7 µL/min/mg.

Question: And the half-life at 1 µM ([4]; pH 7.4, t½, 1 µM substrate, no inhibitor)?
Answer: Its half-life at 1 µM is 0.46 h.

Question: And the microsomal CLint at 1 µM ([5]; 1 µM substrate, plus 3 µM furafylline)?
Answer: Its microsomal CLint at 1 µM is 14.6 µL/min/mg.

Question: And the microsomal CLint at 1 µM ([5]; 1 µM substrate, plus 10 µM furafylline)?
Answer: Its microsomal CLint at 1 µM is 3.52 µL/min/mg.

Question: And the microsomal CLint at 1 µM ([5]; 1 µM substrate, plus 30 µM furafylline)?
Answer: Its microsomal CLint at 1 µM is 5.39 µL/min/mg.

Question: What about the half-life at 1 µM ([5]; pH 7.4, half-life, 1 µM flubendazole, 10 µM furafylline) of the same compound?
Answer: Its half-life at 1 µM is 6.6 h.

Question: And the half-life at 1 µM ([5]; pH 7.4, t½, 1 µM substrate, plus 3 µM furafylline)?
Answer: Its half-life at 1 µM is 1.58 h.

Question: And the half-life at 1 µM ([5]; pH 7.4, t½, 1 µM substrate, plus 10 µM furafylline)?
Answer: The half-life at 1 µM was 6.57 h.

Question: And the half-life at 1 µM ([5]; pH 7.4, t½, 1 µM substrate, plus 30 µM furafylline)?
Answer: The half-life at 1 µM was 4.28 h.

Question: And the increase in half-life [6]?
Answer: The increase in half-life was > 14 times.

Question: What about the hepatocyte CLint at 1 µM ([7]; CLint, assay 2, no inhibitor) of the same compound?
Answer: The hepatocyte CLint at 1 µM was 8.62 ± 2.23 µL/min/1e6 cells.

Question: What about the hepatocyte CLint at 1 µM ([7]; CLint, assay 3, no inhibitor) of the same compound?
Answer: The hepatocyte CLint at 1 µM was 16.7 ± 2.06 µL/min/1e6 cells.

Question: And the hepatocyte CLint at 1 µM ([7]; intrinsic clearance, assay 1 (pre-screening assay), no inhibitor)?
Answer: Its hepatocyte CLint at 1 µM is 15.2 ± 1.09 µL/min/1e6 cells.

Question: What about the half-life at 1 µM ([7]; assay 2, no inhibitor) of the same compound?
Answer: Its half-life at 1 µM is 2.68 h.

Question: And the half-life at 1 µM ([7]; assay 3, no inhibitor)?
Answer: The half-life at 1 µM was 1.38 h.

Question: What about the hepatocyte CLint at 1 µM ([8]; assay 2, fluvoxamine 10 µM) of the same compound?
Answer: The hepatocyte CLint at 1 µM was 3.95 ± 0.941 µL/min/1e6 cells.

Question: What about the hepatocyte CLint at 1 µM ([8]; assay 2, furafylline 1 µM) of the same compound?
Answer: Its hepatocyte CLint at 1 µM is 2.05 ± 2.04 µL/min/1e6 cells.

Question: What about the hepatocyte CLint at 1 µM ([8]; assay 2, furafylline 3 µM) of the same compound?
Answer: The hepatocyte CLint at 1 µM was 1.7 ± 0.885 µL/min/1e6 cells.

Question: And the hepatocyte CLint at 1 µM ([8]; assay 2, thiabendazole 10 µM)?
Answer: The hepatocyte CLint at 1 µM was 2.96 ± 1.17 µL/min/1e6 cells.

Question: And the hepatocyte CLint at 1 µM ([8]; assay 3, cimetidine 10 µM)?
Answer: Its hepatocyte CLint at 1 µM is 5.43 ± 1.9 µL/min/1e6 cells.

Question: And the hepatocyte CLint at 1 µM ([8]; assay 3, cimetidine 100 µM)?
Answer: Its hepatocyte CLint at 1 µM is 10.9 ± 1.27 µL/min/1e6 cells.

Question: And the hepatocyte CLint at 1 µM ([8]; assay 3, cimetidine 300 µM)?
Answer: The hepatocyte CLint at 1 µM was 9.19 ± 1.7 µL/min/1e6 cells.

Question: And the hepatocyte CLint at 1 µM ([8]; assay 3, mexiletine 10 µM)?
Answer: Its hepatocyte CLint at 1 µM is 0.861 ± 0.522 µL/min/1e6 cells.

Question: And the hepatocyte CLint at 1 µM ([8]; assay 3, mexiletine 300 µM)?
Answer: The hepatocyte CLint at 1 µM was 5.85 ± 1.25 µL/min/1e6 cells.

Question: And the half-life at 1 µM ([8]; assay 2, fluvoxamine 10 µM)?
Answer: The half-life at 1 µM was 5.85 h.

Question: And the half-life at 1 µM ([8]; assay 2, furafylline 1 µM)?
Answer: The half-life at 1 µM was 11.3 h.

Question: And the half-life at 1 µM ([8]; assay 2, furafylline 3 µM)?
Answer: Its half-life at 1 µM is 13.6 h.

Question: And the half-life at 1 µM ([8]; assay 2, thiabendazole 10 µM)?
Answer: The half-life at 1 µM was 7.8 h.

Question: And the half-life at 1 µM ([8]; assay 3, cimetidine 10 µM)?
Answer: The half-life at 1 µM was 4.25 h.

Question: What about the half-life at 1 µM ([8]; assay 3, cimetidine 100 µM) of the same compound?
Answer: Its half-life at 1 µM is 2.13 h.

Question: What about the half-life at 1 µM ([8]; assay 3, cimetidine 300 µM) of the same compound?
Answer: Its half-life at 1 µM is 2.52 h.

Question: And the half-life at 1 µM ([8]; assay 3, mexiletine 10 µM)?
Answer: Its half-life at 1 µM is 26.8 h.

Question: And the half-life at 1 µM ([8]; assay 3, mexiletine 300 µM)?
Answer: The half-life at 1 µM was 3.95 h.
